Reference: publication PMC9760430, “A stapled chromogranin A-derived peptide homes in on tumors that express αvβ6 or αvβ8 integrins” (International Journal of Biological Sciences, 2023)
Peptide text beside a SMILES is read from it. * marks the point of attachment. X1 = CC1(C)C(/C=C/C2=C(Oc3ccc(S(=O)(=O)O)cc3)C(=C\C=C3/N(CCCCCC(=O)NCCN4C(=O)CC(*)C4=O)c4ccc(S(=O)(=O)O)cc4C3(C)C)/CCC2)=[N+](CCCCS(=O)(=O)O)c2ccc(S(=O)(=O)[O-])cc21

These compounds were tested against T1, murine αvβ6 (Mus musculus, UniProt P43406+Q9Z0T9) (assay: direct integrin binding assay of peptide-IRDye conjugates, murine αvβ6-coated plates). Conditions: plates coated with recombinant murine αvβ6; conjugate 0.01-100 nM, 1 h; bound NIR fluorescence; mean ± SE, n = 3 experiments.
T1 construct: purchased Bio-Techne
T1 sequence (P43406 31-988 limits assumed): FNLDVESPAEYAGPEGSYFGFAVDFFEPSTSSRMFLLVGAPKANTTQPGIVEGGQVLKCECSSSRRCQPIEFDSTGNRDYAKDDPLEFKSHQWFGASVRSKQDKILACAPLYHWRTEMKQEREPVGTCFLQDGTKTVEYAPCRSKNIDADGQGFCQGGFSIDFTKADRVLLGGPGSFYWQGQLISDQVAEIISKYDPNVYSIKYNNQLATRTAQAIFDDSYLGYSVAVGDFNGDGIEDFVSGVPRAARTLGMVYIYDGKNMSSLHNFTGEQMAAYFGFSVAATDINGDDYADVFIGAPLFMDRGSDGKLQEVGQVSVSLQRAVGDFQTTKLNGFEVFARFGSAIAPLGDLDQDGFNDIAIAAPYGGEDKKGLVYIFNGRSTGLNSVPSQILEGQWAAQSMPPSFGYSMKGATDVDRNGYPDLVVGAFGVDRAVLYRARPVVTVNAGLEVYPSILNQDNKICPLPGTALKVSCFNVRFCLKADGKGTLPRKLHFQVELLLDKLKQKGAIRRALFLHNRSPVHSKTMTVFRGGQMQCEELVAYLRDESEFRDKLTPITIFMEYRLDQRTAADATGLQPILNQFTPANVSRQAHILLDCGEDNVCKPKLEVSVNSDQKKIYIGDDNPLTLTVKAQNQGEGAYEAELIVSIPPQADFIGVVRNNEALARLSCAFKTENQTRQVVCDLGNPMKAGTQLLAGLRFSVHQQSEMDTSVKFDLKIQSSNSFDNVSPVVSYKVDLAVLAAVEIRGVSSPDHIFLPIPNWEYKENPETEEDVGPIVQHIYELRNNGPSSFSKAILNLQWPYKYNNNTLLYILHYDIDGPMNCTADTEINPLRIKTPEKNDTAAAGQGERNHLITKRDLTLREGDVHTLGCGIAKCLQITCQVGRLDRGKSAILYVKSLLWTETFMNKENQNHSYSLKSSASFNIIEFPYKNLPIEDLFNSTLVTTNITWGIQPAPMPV
T1 sequence (Q9Z0T9 22-707 limits assumed): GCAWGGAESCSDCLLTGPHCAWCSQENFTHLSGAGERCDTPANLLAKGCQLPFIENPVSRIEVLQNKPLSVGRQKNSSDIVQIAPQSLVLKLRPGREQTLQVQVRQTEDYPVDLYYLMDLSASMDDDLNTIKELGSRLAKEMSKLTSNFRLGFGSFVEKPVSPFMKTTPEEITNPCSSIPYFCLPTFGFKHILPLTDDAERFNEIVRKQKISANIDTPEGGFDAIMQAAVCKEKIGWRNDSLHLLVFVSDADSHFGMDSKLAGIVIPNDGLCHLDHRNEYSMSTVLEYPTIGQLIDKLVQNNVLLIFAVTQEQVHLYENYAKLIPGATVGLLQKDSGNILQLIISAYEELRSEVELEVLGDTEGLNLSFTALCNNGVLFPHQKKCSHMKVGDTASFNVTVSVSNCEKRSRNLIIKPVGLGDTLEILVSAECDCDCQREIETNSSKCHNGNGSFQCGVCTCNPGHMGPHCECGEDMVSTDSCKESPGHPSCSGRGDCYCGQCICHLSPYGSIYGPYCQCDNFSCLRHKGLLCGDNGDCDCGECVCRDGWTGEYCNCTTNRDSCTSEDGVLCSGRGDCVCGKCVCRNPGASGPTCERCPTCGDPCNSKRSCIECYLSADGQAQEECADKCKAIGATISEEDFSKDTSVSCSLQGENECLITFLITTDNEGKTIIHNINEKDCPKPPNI
Method: The affinity of peptide-IRDye conjugates for αvβ6 and αvβ8 integrins was determined by a direct binding assay using microtiter plates coated with αvβ6 or αvβ8 (Bio-Techne). After 1 h of incubation, the plates were washed; bound fluorescence was quantified by scanning the plates with an Odyssey CLx near-infrared fluorescence imaging system (LI-COR).
A control conjugate with a cysteine in place of the peptide was also prepared in parallel. The identity of the purified products, called 5a-IRDye, 2a-IRDye, and Cys-IRDye, was confirmed by mass spectrometry analysis (Table S1). In addition, the purity and identity of 5a-IRDye was monitored by liquid chromatography–mass spectrometry (LC-MS). […]
that the product consist of a single peak at 230 and 735 nm with the expected molecular weight (purity >95%) (Figure S3A).
The simplified molecular-input line-entry system (SMILES) of 5a-, 2a-, Cys- and 5a-Scr- […]
The concentration of each conjugate was quantified by spectrophotometric analysis at 774 nm (molar absorption coefficient, 240,000 M-1, cm-1) (Figure S3B). The final yield of 5a-IRDye […]
Binding of peptide-IRDye conjugates to avb6 and avb8 integrin
The binding affinity of peptide-IRDye conjugates for human and murine avb6 and avb8 integrins was determined as follows: 96-well clear-bottom black microtiter plates (Corning® cat. 3601) were coated with 2 μg/ml avb6 or avb8 (50 µl/well), in Dulbecco’s phosphate-buffered saline containing Ca2+ and Mg2+ (DPBS) and left to incubate overnight at 4°C. […]
The binding of peptide-IRDye conjugates to BxPC-3, 5M7101, and HUVECs cells was analyzed as follows. […]
conjugates were added to the microtiterplates and incubated at room temperature for 1 h (see Experimental Section). After washing, bound fluorescence was measured using an Odyssey CLx (LI-COR) scanner. Representative images of the scanned plates and quantification of binding are shown. […]
In the case of `CC[C@H](C)[C@H](NC(=O)[C@H](CCCNC(=N)N)NC(=O)[C@H](CC(C)C)NC(=O)[C@H](CC(=O)O)NC(=O)CNC(=O)[C@H](CCCNC(=N)N)NC(=O)[C@H](CC(C)C)NC(=O)[C@@H](NC(=O)[C@H](CCC(=O)O)NC(=O)[C@H](Cc1ccccc1)NC(=O)[C@@H](N)CSC1CC(=O)N(CCNC(=O)CCCCCN2C(=CC=C3CCCC(C=CC4=[N+](CCCCS(=O)(=O)[O-])c5ccc(S(=O)(=O)O)cc5C4(C)C)=C3Oc3ccc(S(=O)(=O)O)cc3)C(C)(C)c3cc(S(=O)(=O)O)ccc32)C1=O)[C@@H](C)O)C(=O)N[C@@H](CC(C)C)C(=O)N[C@@H](CO)C(=O)N[C@H](C(=O)N[C@@H](CC(C)C)C(=O)N[C@@H](CCCNC(=N)N)C(=O)N[C@H]1Cc2cn(nn2)CCCC[C@@H](C(=O)N[C@@H](CCCCN)C(=O)N[C@@H](CCC(=O)O)C(=O)N[C@@H](CC(C)C)C(=O)N[C@@H](CCC(N)=O)C(=O)N[C@@H](CC(=O)O)C(N)=O)NC(=O)[C@H](CC(C)C)NC(=O)[C@H](CC(N)=O)NC(=O)[C@H](CCC(N)=O)NC1=O)[C@@H](C)CC` (stereo partly drawn) [5a-IRDye], the EC50 is reported as 0.9 ± 0.35 nM. In the case of `CC1(C)C(/C=C/C2=C(Oc3ccc(S(=O)(=O)O)cc3)C(=C\C=C3/N(CCCCCC(=O)NCCN4C(=O)CC(SC[C@H](N)C(=O)O)C4=O)c4ccc(S(=O)(=O)O)cc4C3(C)C)/CCC2)=[N+](CCCCS(=O)(=O)O)c2ccc(S(=O)(=O)[O-])cc21` (stereo partly drawn) [Cys-IRDye], the EC50 is reported as greater than 100 nM. `CC[C@H](C)[C@H](NC(=O)[C@H](CCCNC(=N)N)NC(=O)[C@H](CCC(=O)O)NC(=O)[C@H](CCC(=O)O)NC(=O)CNC(=O)[C@H](CCCNC(=N)N)NC(=O)[C@H](CC(C)C)NC(=O)[C@@H](NC(=O)[C@H](CCC(=O)O)NC(=O)[C@H](Cc1ccccc1)NC(=O)[C@@H](N)CSC1CC(=O)N(CCNC(=O)CCCCCN2/C(=C\C=C3\CCCC(/C=C/C4=[N+](CCCCS(=O)(=O)O)c5ccc(S(=O)(=O)[O-])cc5C4(C)C)=C3Oc3ccc(S(=O)(=O)O)cc3)C(C)(C)c3cc(S(=O)(=O)O)ccc32)C1=O)[C@@H](C)O)C(=O)N[C@@H](CC(C)C)C(=O)N[C@@H](CO)C(=O)N[C@H](C(=O)N[C@@H](CC(C)C)C(=O)N[C@@H](CCCNC(=N)N)C(=O)N[C@@H](Cc1c[nH]cn1)C(=O)N[C@@H](CCC(N)=O)C(=O)N[C@@H](CC(N)=O)C(=O)N[C@@H](CC(C)C)C(=O)N[C@@H](CC(C)C)C(=O)N[C@@H](CCCCN)C(=O)N[C@@H](CCC(=O)O)C(=O)N[C@@H](CC(C)C)C(=O)N[C@@H](CCC(N)=O)C(=O)N[C@@H](CC(=O)O)C(N)=O)[C@@H](C)CC` (stereo partly drawn) [2a-IRDye] (H-C(X1)FETLRGEERILSILRHQNLLKELQD-NH2) showed an EC50 greater than 100 nM.
